Columns and labels:
Format in all cases: functional, cell-based
MCF7 = test: Cytotoxicity against human MCF7 cells by MTT assay
MDA-MB-231 = test: Cytotoxicity against human MDA-MB-231 cells by MTT assay
A549 = test: Cytotoxicity against human A549 cells by MTT assay
HeLa = test: Cytotoxicity against human HeLa cells by MTT assay

## CC1=C(C(=O)N2CCOCC2)C(c2ccccc2)N2C(=N1)Sc1ccccc12 (centres undefined)
MCF7
  IC50: 10.1 µM
MDA-MB-231
  IC50: 11.1 µM

## CC1=C(C(=O)N2CCN(C)CC2)C(c2ccccc2)N2C(=N1)Sc1ccccc12 (centres undefined)
MCF7
  IC50: 0.58 µM
MDA-MB-231
  IC50: 1.58 µM

## CC1=C(C(=O)NCCC(=O)N2CCCCC2)C(c2ccccc2)N2C(=N1)Sc1ccccc12 (centres undefined)
A549
  IC50: 18.1 µM
MCF7
  IC50: 16.8 µM
MDA-MB-231
  IC50: 21.7 µM
HeLa
  IC50: 11.4 µM

## CC1=C(C(=O)NCCC(=O)N2CCN(c3ccc([N+](=O)[O-])cc3)CC2)C(c2ccccc2)N2C(=N1)Sc1ccccc12 (centres undefined)
A549
  IC50: 11.2 µM
MCF7
  IC50: 13.8 µM
HeLa
  IC50: 25.7 µM

## CC1=C(C(=O)N2CCCCC2)C(c2ccccc2)N2C(=N1)Sc1ccccc12 (centres undefined)
MCF7
  IC50: 11.7 µM
MDA-MB-231
  IC50: 5.01 µM

## COc1cccc2c1C(=O)c1c(O)c3c(c(O)c1C2=O)C[C@@](O)(C(=O)CO)C[C@@H]3O[C@H]1C[C@H](N)[C@H](O)[C@H](C)O1 [DOXORUBICIN]
MCF7
  IC50: 1.05 µM
MDA-MB-231
  IC50: 0.501 µM

## CC1=C(C(=O)N2CCN(c3ccccc3)CC2)C(c2ccccc2)N2C(=N1)Sc1ccccc12 (centres undefined)
MCF7
  IC50: 77.6 µM
MDA-MB-231
  IC50: 31.6 µM

## CC1=C(C(=O)N2CCN(c3ccc([N+](=O)[O-])cc3)CC2)C(c2ccccc2)N2C(=N1)Sc1ccccc12 (centres undefined)
MCF7
  IC50: 29 µM
MDA-MB-231
  IC50: 47.2 µM

— ChEMBL document CHEMBL2434900, “Synthesis of novel benzo[4,5]thiazolo[1,2-a]pyrimidine-3-carboxylate derivatives and biological evaluation as potential anticancer agents” (Eur J Med Chem, 2013)
